Source: PMC7660225, “New Chemical Probe Targeting Bacterial NAD Kinase” (Molecules, 2020)

Key:
recombinant LmNADK1 = target: T1, recombinant LmNADK1 (Listeria monocytogenes serovar 1/2a, UniProt Q8Y8D7); assay: LmNADK1 inhibition, coupling assay (Ki measurements); format: biochemical; conditions: for Ki: competitive inhibition fit, 30 °C, pH 7.0, inhibitor 0, 10, 25 or 50 µM, 0-2 mM NAD, 0.1 µM LmNADK1; for inhibitory potency compared to inhibitor 1 (NKI1): result in words
T1 construct: made in house
T1 sequence (Q8Y8D7 1-264): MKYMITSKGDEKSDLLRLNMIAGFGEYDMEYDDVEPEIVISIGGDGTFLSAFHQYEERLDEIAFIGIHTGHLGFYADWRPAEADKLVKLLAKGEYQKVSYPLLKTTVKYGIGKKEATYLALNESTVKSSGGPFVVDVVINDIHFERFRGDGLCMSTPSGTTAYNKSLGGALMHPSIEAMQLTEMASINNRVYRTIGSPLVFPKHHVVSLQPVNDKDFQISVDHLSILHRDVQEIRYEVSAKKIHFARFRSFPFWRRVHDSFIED
Description: Another important parameter to select the chemical probe is that it retains its binding properties. The potency of ligands 2–5 as inhibitors of recombinant LmNADK1 in vitro were determined using the coupling assay described previously.
Activity was measured at 30 °C in 50 mM Bis-Tris pH 7.0, 2 mM sodium citrate, 1 mM MgCl2. Reaction mixtures contained 0–2 mM NAD, 4 mM MgATP, 5 mM Glucose 6-phosphate, 1 U/mL Glucose 6-phosphate dehydrogenase and 0.1 µM LmNADK1. Steady state rate constants (kss) were calculated by fitting the initial (first 500–1000 s) linear part of the NADP production time courses per NADK. Inhibitors were tested at 4 concentrations: 0, 10, 25 or 50 µM and Ki values were determined using the competitive inhibition equation, kss = kcat × NAD/(KM × (1 + [inhibitor]/Ki) + NAD), with GraFit software (v 7.0.3).
Figure 5 Determination of inhibition constants of compounds 1–5. Inhibitor concentrations were 0 (circles), 10 (triangles), 25 (squares) and 50 (stars) µM. Secondary plots (kss as a function of initial NAD concentration) were fitted assuming a competitive inhibition using GraFit software (v 7.0.3) and are presented here as double reciprocal plots. […] TEXT PRINTED IN THE PICTURE: NKI1: Ki (μM): 17.2 | 2: Ki (μM): 347 | 3: Ki (μM): 52.2 | 4: Ki (μM): 23.8 | 5: Ki (μM): 5.6

crystallized LmNADK1 = target: T2, crystallized LmNADK1 (Listeria monocytogenes serovar 1/2a, UniProt Q8Y8D7); assay: X-ray crystallography of soaked LmNADK1 crystals; format: binding; conditions: soaking procedure; structures refined to 2.2-2.4 Å
T2 construct: made in house
T2 sequence (Q8Y8D7 1-264): T1 sequence (Q8Y8D7 1-264)
Description: A prerequisite to use a chemical probe is that it retains its binding affinity for its target. The binding properties of the four synthesized derivatives 2–5 were analyzed by X-ray crystallography. We checked the binding properties of these new di-adenosine derivatives by determining their complex with crystallized LmNADK1. The soaking procedure described previously for inhibitor 1 [18] was used to obtain crystals of the target in complex with compounds 2-5. The X-ray structures were solved by molecular replacement using PDB6RGC [18] as a starting template and refined to 2.2–2.4 Å resolution.

S. aureus = test system: S. aureus; design: method as in PMID 32017533; conditions: including antibiotic-resistant strains; cited from earlier work

| SMILES | Ki (recombinant LmNADK1) [µM] | inhibitory potency compared to inhibitor 1 (NKI1) (recombinant LmNADK1) | complex formation / binding mode with crystallized LmNADK1 (crystallized LmNADK1) | activity in mice infected with S. aureus (S. aureus) |
| --- | --- | --- | --- | --- |
| NCCCC(=O)NCC1OC(n2c(C#CCOCC3OC(n4cnc5c(N)ncnc54)C(O)C3O)nc3c(N)ncnc32)C(O)C1O (centres unmarked) [Compound 4, 5’-O-[3-(5’-(4-Aminobutylamido)-5’-deoxy-adenosin-8-yl)prop-2-yn-1-yl]-adenosine] | 23.8 | slightly reduced inhibitory potency | very similar to that of NKI1 | – |
| NCCCCNc1ncnc2c1ncn2C1OC(COCC#Cc2nc3c(N)ncnc3n2C2OC(CO)C(O)C2O)C(O)C1O (centres unmarked) [Compound 3, 8-[3-(N^6-4-Aminobutyl-5’-O-adenosinyl)propargyl]adenosine] | 52.2 | sharp decrease in inhibitory potency | failed to yield complex | – |
| Nc1ncnc2c1ncn2C1OC(COCC#Cc2nc3c(N)ncnc3n2C2OC(CO)C(O)C2O)C(O)C1O (centres unmarked) [NKI1] | 17.2 | – | – | active in mice infected with S. aureus |
| NCCCN(CC#Cc1nc2c(N)ncnc2n1C1OC(CO)C(O)C1O)CC1OC(n2cnc3c(N)ncnc32)C(O)C1O (centres unmarked) [Compound 5, 5’-[N-3-Aminopropyl-N-(3-(adenosin-8-yl)propargyl)amino]-5’-deoxyadenosine] | 5.6 | slightly increased | very similar to that of NKI1 | – |
| NCCNc1ncnc2c1ncn2C1OC(COCC#Cc2nc3c(N)ncnc3n2C2OC(CO)C(O)C2O)C(O)C1O (centres unmarked) [Compound 2, 8-[3-(N^6-2-Aminoethyl-5’-O-adenosinyl)propargyl]adenosine] | 347 | sharp decrease in inhibitory potency | led to a complex with the target | – |
